Tests used:
Type in all cases: cell-based
[1] = system: LabCyte EPI-MODEL normal skin epidermis model; test: in vitro skin irritation test OECD TG-439, temperature-responsive carriers; settings: the lower the score, the higher the toxicity; Water (negative control) 100 points
Method: In Vitro Skin Irritation Test of Cultured Cell According to OECD Guidelines. OECD
Guidelines for the Testing of Chemicals, 439. (2015)
LabCyte EPI-MODEL was used as a normal skin epidermis model, and a skin irritation test was performed and scored. As a result (the lower the score, the higher the toxicity), the score is 3 points for 5% SLS (positive control), 100 points for Water (negative control), 125 points for A-1 of the present invention, and B-1 was 101, C-1 was 89, and D-1 was 83, and the viable cell rate was 50% or higher in all the formulations. All skin irritation was denied.

[2] = system: LabCyte EPI-MODEL normal dermal epidermis model; test: in vitro skin irritation test OECD 439, pH-responsive carriers; settings: the lower the score, the higher the toxicity; Water (negative control) 100 points
Method: In vitro skin irritation tests were conducted using cultured cell according to OECD guidelines. We used OECD GUIDELINES FOR THE TESTING OF CHEMICALS, 439. (2015) for guidelines. As a result of the skin irritation test using LabCyte EPI-MODEL as a normal dermal epidermis model (the lower the score, the higher the toxicity and the lower the safety), the scores were 3 points for 5% SLS (positive control) and 100 points for Water (negative control), 134 points for A-2, 109 points for B-2,95 points for C-2, and 91 points for D-2, and the percentage of viable cell was more than 50% for all the preparations and the skin irritation was denied.

[3] = system: LabCyte EPI-MODEL normal skin epidermis model; test: in vitro skin irritation test OECD 439, photoresponsive carriers; settings: the higher the score, the higher the safety; Water (negative control) 100 points
Method: In vitro skin irritation tests were performed on cultured cell according to OECD guidelines. The guidelines used were OECD GUIDELINES FOR THE TESTING OF CHEMICALS, 439. (2015). LabCyte EPI-MODEL was used as a normal skin epidermis model, and a skin irritation test was performed and scored. As a result (the higher the score, the higher the safety), the score is 5% SLS (positive control) 3 points, Water (negative control) 100 points, A-1 of the present invention is 111 points, B-1 was 98 points, C-1 was 87 points, and D-1 was 79 points. The viable cell rate of all the preparations was 50% or more, and skin irritation was denied.

Measured: skin irritation test score

CCCCCCCCCCCCOS(=O)(=O)[O-].[Na+] [SLS]
3 points: all assays above

Source: patent US12642769B2, “Delivery carrier into cell” (Kabusikikaisya ITO, priority 2019, dated 2026)
